Patent US8354414B2, “Substituted bicyclic pyrimidines” (Cephalon, Inc, priority 2006, dated 2013)

How the values were obtained:
CDK5/GST-p25 = target: T1, CDK5/GST-p25 (Homo sapiens, UniProt Q00535); assay: Inhibition of CDK5/GST-p25 kinase activity (ELISA with time-resolved fluorescence readout); assay type: biochemical
T1 construct: The final construct, encoding for full-length human CDK5; made in house; host or cells: Sf21 insect cells (baculovirus co-infection)
In short: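 Sf21-coexpressed full-length human CDK5 with GST-p25 (p35 aa 108-307), glutathione-purified, at 2 ng/ml was reacted for 20 min at 37 °C on plate-coated GST-Rb(773-928). Buffer was 20 mM HEPES pH 7.2, 10 µM ATP, 10 mM MgCl2 and 2.5% DMSO. Phospho-Rb Ser-780 was detected by Eu-labelled antibody TRF, and IC50 curves were fitted.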

His6-GSK-3β = target: T2, His6-GSK-3β (Homo sapiens, UniProt P49841); assay: Inhibition of His6-GSK-3β kinase activity (ELISA-based format, time-resolved fluorescence readout); assay type: biochemical; details: class symbols; read-out: GSK3β IC50
T2 construct: made in house; host or cells: Sf21 insect cells (baculovirus)
In short: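 N-terminal His6-tagged full-length human GSK-3β (aa 2-419) expressed in Sf21 cells, 200 ng/ml, phosphorylating plate-coated GST-Rb with 20 μM ATP in pH 7.2 HEPES buffer, 30 min at 37° C. Phospho-Rb (Ser-780) detected by antibody plus Eu-labelled secondary, time-resolved fluorescence; IC50 from curves.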

T1 sequence (Q00535 whole entry): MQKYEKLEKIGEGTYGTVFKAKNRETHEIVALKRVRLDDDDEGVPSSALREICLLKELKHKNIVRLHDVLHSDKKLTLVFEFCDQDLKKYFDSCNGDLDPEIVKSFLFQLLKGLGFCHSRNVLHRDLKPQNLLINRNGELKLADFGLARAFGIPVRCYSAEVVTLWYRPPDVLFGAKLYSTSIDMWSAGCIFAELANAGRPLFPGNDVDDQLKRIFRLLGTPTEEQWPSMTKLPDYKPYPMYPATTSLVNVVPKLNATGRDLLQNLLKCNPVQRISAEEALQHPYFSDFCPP
T1 sequence (Q15078 108-307 partner limits assumed): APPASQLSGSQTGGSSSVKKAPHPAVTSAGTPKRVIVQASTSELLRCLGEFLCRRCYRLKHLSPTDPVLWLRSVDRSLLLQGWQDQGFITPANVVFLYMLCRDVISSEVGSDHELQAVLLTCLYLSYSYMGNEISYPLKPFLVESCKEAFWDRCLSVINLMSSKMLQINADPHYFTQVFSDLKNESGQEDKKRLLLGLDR
T2 sequence (P49841 2-419): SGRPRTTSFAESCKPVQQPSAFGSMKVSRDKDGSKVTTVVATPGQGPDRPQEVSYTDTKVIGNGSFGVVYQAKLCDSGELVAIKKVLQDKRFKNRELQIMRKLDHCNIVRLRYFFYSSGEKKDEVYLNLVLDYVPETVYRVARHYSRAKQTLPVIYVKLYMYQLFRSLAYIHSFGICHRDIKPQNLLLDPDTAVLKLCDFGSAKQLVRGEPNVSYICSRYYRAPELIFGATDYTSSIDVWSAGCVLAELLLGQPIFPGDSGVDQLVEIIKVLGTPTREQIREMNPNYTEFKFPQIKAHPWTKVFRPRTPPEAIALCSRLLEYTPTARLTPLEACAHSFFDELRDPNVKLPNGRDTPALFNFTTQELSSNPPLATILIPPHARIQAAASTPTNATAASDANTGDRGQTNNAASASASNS

SMILES | IC50 (CDK5/GST-p25; class symbols) | IC50 (His6-GSK-3β) | melting point | inhibition at 10 µM (CDK5/GST-p25) | IC50 (CDK5/GST-p25; numeric bounds)
Cn1ncc2c(C3C(=O)Nc4ccc(Cl)cc43)ncnc21 (stereo not drawn) [Example 86, 5-Chloro-3-(1-methyl-1H-pyrazolo[3,4-d]pyrimidin-4-yl)-1,3-dihydro-indol-2-one] | < 300 nM | > 10000 nM | > 320 °C | – | –
O=C1Nc2ccc(Cl)cc2C1c1nc(NCCc2cccnc2)nc2nn(C3CCCC3)cc12 (stereo not drawn) [Example 279, 5-Chloro-3-[2-cyclopentyl-6-(2-pyridin-3-yl-ethylamino)-2H-pyrazolo[3,4-d]pyrimidin-4-yl]-1,3-dihydro-indol-2-one] | 300 to 3000 nM | < 300 nM | 277 to 281 °C | – | –
CNCCCNc1nc(C2C(=O)Nc3ccc(Br)cc32)c2cn(CC(C)C)nc2n1 (stereo not drawn) [Example 267, 5-Bromo-3-[2-isobutyl-6-(3-methylamino-propylamino)-2H-pyrazolo[3,4-d]pyrimidin-4-yl]-1,3-dihydro-indol-2-one] | < 300 nM | < 300 nM | 240 to 259 °C | – | –
C=CCNc1nc(C2C(=O)Nc3ccc(C#N)cc32)c2cn(C3CCCC3)nc2n1 (stereo not drawn) [Example 149, 3-(6-Allylamino-2-cyclopentyl-2H-pyrazolo[3,4-d]pyrimidin-4-yl)-2-oxo-2,3-dihydro-1H-indole-5-carbonitrile] | < 300 nM | < 300 nM | > 300 °C | – | –
CCCCCn1cc2c(C3C(=O)Nc4ccc(C(F)(F)F)cc43)nc(NCCCN3CCOCC3)nc2n1 (stereo not drawn) [Example 290, 3-[6-(3-Morpholin-4-yl-propylamino)-2-pentyl-2H-pyrazolo[3,4-d]pyrimidin-4-yl]-5-trifluoromethyl-1,3-dihydro-indol-2-one] | – | < 300 nM | 230 °C (dec.) | 73% | –
N#Cc1ccc2c(c1)C(c1ncnc3c1cnn3C1CCCCC1)C(=O)N2 (stereo not drawn) [Example 68, 3-(1-Cyclohexyl-1H-pyrazolo [3,4-de]pyrimidin-4-yl)-2-oxo-2,3-dihydro-1H-indole-5-carbonitrile] | > 10000 nM | > 10000 nM | > 300 °C | – | –
CNc1nc(C2C(=O)Nc3ccc(C(F)(F)F)cc32)c2cn(C3CCCC3)nc2n1 (stereo not drawn) [Example 159, 3(-2-cyclopentyl-6-methylamino-2H-pyrazolo[3,4-d]pyrimidin-4-yl)-5-trifluoromethyl-1,3-dihydro-indol-2-one] | > 10000 nM | > 10000 nM | > 300 °C | – | –
CC(C)n1cc2c(C3C(=O)Nc4ccc(Cl)cc43)ncnc2n1 (stereo not drawn) [Example 381, 5-Chloro-3-(2-isopropyl-2H-pyrazolo[3,4-d]pyrimidin-4-yl)-1,3-dihydro-indol-2-one] | < 300 nM | 300 to 3000 nM | > 300 °C | – | –
O=C1Nc2cc(F)ccc2C1c1ncnc2nn(C3CCCC3)cc12 (stereo not drawn) [Example 41, 3-(2-Cyclopentyl-2H-pyrazolo[3,4-d]pyrimidin-4-yl)-6-fluoro-1,3-dihydro-indol-2-one] | 300 to 3000 nM | 300 to 3000 nM | 258 to 263 °C | – | –
O=C1Nc2ccc(C(F)(F)F)cc2C1c1nc(NCc2ccncc2)nc2nn(C3CCCC3)cc12 (stereo not drawn) [Example 246, 3-{2-Cyclopentyl-6-[(pyridin-4-ylmethyl)-amino]-2H-pyrazolo[3,4-d]pyrimidin-4-yl}-5-trifluoromethyl-1,3-dihydro-indol-2-one] | – | < 300 nM | > 300 °C | – | > 3000 nM
CCCCCn1cc2c(C3C(=O)Nc4ccc(C#N)cc43)nc(Cl)nc2n1 (stereo not drawn) [Example 291, 3-(6-Chloro-2-pentyl-2H-pyrazolo [3,4-d]pyrimidin-4-yl)-2-oxo-2,3-dihydro-1H-indole-5-carbonitrile] | – | 300 to 3000 nM | 254 °C (dec.) | – | > 3000 nM
CCCn1cc2c(C3C(=O)Nc4ccc(C#N)cc43)nc(NCc3ccncc3)nc2n1 (stereo not drawn) [Example 186, 2-Oxo-3-{2-propyl-6-[(pyridine-4-ylmethyl)-amino]-2H-pyrazolo [3,4-d]pyrimidin-4-yl}-2,3-dihydro-1H-indole-5-carbonitrile] | < 300 nM | < 300 nM | 299 to 302 °C | – | –

Continued, values first:

IC50 (CDK5/GST-p25; class symbols) | IC50 (His6-GSK-3β) | melting point | inhibition at 10 µM (CDK5/GST-p25) | IC50 (CDK5/GST-p25; numeric bounds) | SMILES
300 to 3000 nM | < 300 nM | 192 °C (dec.) | – | – | CCCCCn1cc2c(C3C(=O)Nc4ccc(C(F)(F)F)cc43)nc(NCCN)nc2n1 (stereo not drawn) [Example 288, 3-[6-(2-Amino-ethylamino)-2-pentyl-2H-pyrazolo [3,4-d]pyrimidin-4-yl]-5-trifluoromethyl-1,3-dihydro-indol-2-one]
> 10000 nM | 300 to 3000 nM | 176 to 179 °C | – | – | CN(C)CCCNc1nc(C2C(=O)Nc3ccc(Cl)cc32)c2cn(C3CCCC3)nc2n1 (stereo not drawn) [Example 377, 5-Chloro-3-[2-cyclopentyl-6-(3-dimethylamino-propylamino)-2H-pyrazolo [3,4-d]pyrimidin-4-yl]-1,3-dihydro-indol-2-one]
– | < 300 nM | > 300 °C | 76% | – | CC(C)Nc1nc(C2C(=O)Nc3ccc(C#N)cc32)c2cn(C3CCCC3)nc2n1 (stereo not drawn) [Example 150, 3-(2-cyclopentyl-6-isopropylamino-2H-pyrazolo [3,4-d]pyrimidin-4-yl)-2-oxo-2,3-dihydro-1H-indole-5-carbonitrile]
> 10000 nM | 300 to 3000 nM | 288 to 291 °C | – | – | O=C1Nc2cc(Cl)ccc2C1c1ncnc2c1cnn2C1CCCC1 (stereo not drawn) [Example 59, 6-Chloro-3-(1-cyclopentyl-1H-pyrazolo[3,4-d]pyrimidin-4-yl)-1,3-dihydro-indol-2-one]
< 300 nM | < 300 nM | 297 to 299 °C | – | – | CCOCCn1cc2c(C3C(=O)Nc4ccc(Br)cc43)nc(NC[C@H](C)O)nc2n1 (stereo partly drawn) [Example 238, 5-Bromo-3-[2-(2-ethoxy-ethyl)-6-((S)-2-hydroxy-propylamno)-2H-pyrazolo[3,4-d]pyrimidin-4-yl]-1,3-dihydro-indol-2-one]
> 10000 nM | > 10000 nM | 282 to 286 °C | – | – | O=C1Nc2ccc(F)cc2C1c1ncnc2c1cnn2C1CCCCC1 (stereo not drawn) [Example 72, 3-(1-Cyclohexyl-1H-pyrazolo[3,4-d]pyrimidin-4-yl)-5-fluoro-1,3-dihydro-indol-2-one]
< 300 nM | 300 to 3000 nM | 360 to 365 °C | – | – | Cn1cc2c(C3C(=O)Nc4ccc(Br)cc43)ncnc2n1 (stereo not drawn) [Example 82, 5-Bromo-3-(2-methyl-2H-pyrazolo[3,4-d]pyrimidin-4-yl)-1,3-dihydro-indol-2-one]
< 300 nM | < 300 nM | 298 to 303 °C | – | – | CCCn1cc2c(C3C(=O)Nc4ccc(Br)cc43)nc(NCCCN3CCOCC3)nc2n1 (stereo not drawn) [Example 203, 5-Bromo-3-[6-(3-morpholin-4-yl-propylamino)-2-propyl-2H-pyrazolo [3,4-d]pyrimidin-4-yl]-1,3-dihydro-indol-2-one]
< 300 nM | < 300 nM | 249 to 259 °C | – | – | COCCNc1nc(C2C(=O)Nc3ccc(Cl)cc32)c2cn(C3CCCC3)nc2n1 (stereo not drawn) [Example 277, 5-Chloro-3-[2-cyclopentyl-6-(2-methyoxy-ethylamino)-2H-pyrazolo[3,4-d]pyrimidin-4-yl]-1,3-dihydro-indol-2-one]
300 to 3000 nM | 300 to 3000 nM | 291 to 292 °C | – | – | COCCn1cc2c(C3C(=O)Nc4ccc(Br)cc43)nc(NCCN(C)C)nc2n1 (stereo not drawn) [Example 229, 5-Bromo-3-[6-(2-dimethylamino-ethylamino)-2-(2-methoxy-ethyl)-2H-pyrazolo[3,4-d]pyrimdin-4-yl]-1,3-dihydro-indol-2-one]
> 10000 nM | > 10000 nM | 270 to 273 °C | – | – | O=C1Nc2ccccc2C1c1nc(Cl)nc2nn(C3CCCC3)cc12 (stereo not drawn) [Example 152, 3-(6-Chloro-2-cyclopentyl-2H-pyrazolo[3,4-d]pyrimidin-4-yl)-1,3-dihydro-indol-2-one]
< 300 nM | < 300 nM | 286 to 289 °C | – | – | COCCNc1nc(C2C(=O)Nc3ccc(Cl)cc32)c2cn(CC(C)C)nc2n1 (stereo not drawn) [Example 272, 5-Chloro-3-[2-isobutyl-6-(2-methoxy-ethylamino)-2H-pyrazolo[3,4-d]pyrimidin-4-yl]-1,3-dihydro-indol-2-one]
< 300 nM | < 300 nM | 298 to 300 °C | – | – | CCOCCn1cc2c(C3C(=O)Nc4ccc(Br)cc43)nc(NC[C@@H](C)O)nc2n1 (stereo partly drawn) [Example 239, 5-Bromo-3-[2-(2-ethoxy-ethyl)-6-((R)-2-hydroxy-propylamino)-2H-pyrazolo[3,4-d]pyrimidin-4-yl]-1,3-dihydro-indol-2-one]
300 to 3000 nM | < 300 nM | 250 to 254.5 °C | – | – | O=C1Nc2ccc(Cl)cc2C1c1nc(NCCCN2CCOCC2)nc2nn(C3CCCC3)cc12 (stereo not drawn) [Example 278, 5-Chloro-3-[2-cyclopentyl-6-(3-morpholin-4-yl-propylamino)-2H-pyrazolo[3,4-d]pyrimidin-4-yl]-1,3-dihydro-indole-2-one]
< 300 nM | 300 to 3000 nM | 256 to 260 °C | – | – | O=C1Nc2ccc(F)cc2C1c1ncnc2nn(C3CCCC3)cc12 (stereo not drawn) [Example 40, 3-(2-Cyclopentyl-2H-pyrazolo[3,4-d]pyrimidin-4-yl)-5-fluoro-1,3-dihydro-indol-2-one]
